According to article PMC9802118, “C25-modified rifamycin derivatives with improved activity against Mycobacterium abscessus” (PNAS Nexus, 2022):

Assays:
ArrMab = target: T1, ArrMab (Mycobacteroides abscessus, UniProt B1MH05); assay: ITC (also nanoDSF; rpTLC ADP-ribosylation); assay type: binding
T1 construct: gene MAB_0591; purified wild-type enzyme, N-terminal His6 tag cleaved with C3 protease

ArrMsm = target: T2, ArrMsm (Mycolicibacterium smegmatis, UniProt A0QRS5); assay: ITC (also nanoDSF; rpTLC ADP-ribosylation); assay type: binding
T2 construct: gene MSMEG_1221; purified wild-type enzyme, N-terminal His6 tag cleaved with C3 protease
T2 sequence (A0QRS5 entry or part of it): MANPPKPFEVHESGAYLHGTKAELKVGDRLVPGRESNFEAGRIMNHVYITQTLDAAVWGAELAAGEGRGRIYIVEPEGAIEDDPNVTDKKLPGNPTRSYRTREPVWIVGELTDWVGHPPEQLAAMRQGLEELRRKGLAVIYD

T1 sequence (B1MH05 entry or part of it): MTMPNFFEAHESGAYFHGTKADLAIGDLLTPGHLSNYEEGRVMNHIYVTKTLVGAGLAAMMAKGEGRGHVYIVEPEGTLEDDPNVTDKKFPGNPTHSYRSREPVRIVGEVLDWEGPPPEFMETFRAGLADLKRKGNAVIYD

## CO[C@H]1/C=C/O[C@@]2(C)Oc3c(C)c(O)c4c(O)c(c(/C=N/N5CCN(C)CC5)c(O)c4c3C2=O)NC(=O)/C(C)=C\C=C\[C@H](C)[C@H](O)[C@@H](C)[C@@H](O)[C@@H](C)[C@H](OC(C)=O)[C@@H]1C [RMP, Rifampicin]
ArrMab
  Kd: 4.8 ± 0.003 µM
ArrMsm
  Kd: 0.29 ± 0.02 µM
